Test results published in patent publication US20110071197A1, “BIS-ARYL COMPOUNDS FOR USE AS MEDICAMENTS” (priority 2008, published 2011).

target: T1, Recombinant human LTC4 synthase (Homo sapiens, UniProt Q16873); test: LTC4 synthase in vitro assay (HTRF detection of LTC4); assay type: biochemical; details: total concentration of title compound in the assay 10 μM; HTRF method
T1 construct: made in house; host or cells: Pichia pastoris
T1 sequence (Q16873 1-150): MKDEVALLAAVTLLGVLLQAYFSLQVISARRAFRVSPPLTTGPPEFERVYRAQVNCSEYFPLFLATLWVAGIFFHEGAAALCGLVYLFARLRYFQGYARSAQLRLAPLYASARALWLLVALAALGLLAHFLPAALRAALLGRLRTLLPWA
Procedure, shortened: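 Pichia-expressed recombinant human LTC4 synthase at 0.5 μg/ml total protein in PBS pH 7.4 with 5 mM GSH, preincubated 10 min at RT with inhibitor (10 μM final). LTA4 (2.5 μM final) was then added for 5 min at RT. LTC4 formed was read by HTRF.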

Structure (SMILES)	% inh. [%]	inhibition at 10 µM [%]
CCCCc1ccc(C(=O)Nc2cccc(Oc3ccc(NC(=O)c4ccc(C(F)(F)F)cc4F)c(C(=O)O)c3)c2)cc1 [10:4, 5-[3-((4-(1-butyl)benzoyl)amino)-phenoxy]-2-(2-fluoro-4-trifluoro-methylbenzoylamino)benzoic acid]	95	
O=C(Nc1cccc(Oc2ccc(NC(=O)c3ccc(C(F)(F)F)cc3F)c(C(=O)O)c2)c1)c1cccc(C(F)(F)F)c1 [10:5, 2-(2-fluoro-4-trifluoromethylbenzoyl-amino)-5-[3-(3-trifluoro-methylbenzoylamino)phenoxy]benzoic acid]	98	
O=C(Nc1cccc(Oc2ccc(NC(=O)c3ccc(C(F)(F)F)cc3F)c(C(=O)O)c2)c1)c1ccc(C(F)(F)F)cc1 [10:6, 2-(2-fluoro-4-trifluoromethylbenzoyl-amino)-5-[3-(4-trifluoromethylbenzoyl-amino)phenoxy]benzoic acid]		98
O=C(Nc1ccc(Oc2ccc(NS(=O)(=O)c3ccc(C(F)(F)F)cc3Cl)cc2)cc1C(=O)O)c1ccc(C(F)(F)F)cc1 [11:2, 5-[4-(2-chloro-4-trifluoromethyl-benzenesulfonylamino)phenoxy]-2-(4-trifluoromethylbenzoyl-amino)benzoic acid]		97
COc1ccc(S(=O)(=O)N(C)c2ccc(Oc3ccc(NC(=O)c4ccc(Cl)cc4Cl)c(C(=O)O)c3)cc2)cc1 [11:4]	98	
CCCCc1ccc(S(=O)(=O)N(C)c2ccc(Oc3ccc(NC(=O)c4ccc(C)cc4)c(C(=O)O)c3)cc2)cc1 [11:5, 5-{4-[(4-butyl-benzenesulfonyl)-methylamino]phenoxy}-2-(4-methylbenzoylamino)benzoic acid]		99
CCCCc1ccc(S(=O)(=O)N(C)c2ccc(Oc3ccc(NC(=O)c4ccc(OC(C)C)cc4)c(C(=O)O)c3)cc2)cc1 [11:6, 5-{4-[(4-butylbenzene-sulfonyl)-methylamino]phenoxy}-2-(4-isopropoxybenzoylamino)-benzoic acid]		96
CCCCc1ccc(S(=O)(=O)N(C)c2ccc(Oc3ccc(NC(=O)c4ccc(Cl)cc4Cl)c(C(=O)O)c3)cc2)cc1 [11:7, 5-{4-[(4-butylbenzenesulfonyl)-methylamino]phenoxy}-2-(2,4-dichlorobenzoylamino)benzoic acid]		100
CCCCc1ccc(C(=O)Nc2ccc(Oc3ccc(NS(=O)(=O)c4ccc(S(C)(=O)=O)cc4)cc3)cc2C(=O)O)cc1 [11:8, 2-(4-butylbenzoylamino)-5-[4-(4-methanesulfonylbenzene-sulfonylamino)phenoxy]benzoic acid]		98
CCCCOc1ccc(S(=O)(=O)Nc2ccc(Oc3ccc(N(C)C(=O)c4ccccc4)c(C(=O)O)c3)cc2)cc1 [11:9, 2-(benzoylmethylamino)-5-[4-(4-butoxybenzenesulfonylamino)-phenoxy]benzoic acid]		89
CCCCOc1ccc(S(=O)(=O)Nc2ccc(Oc3ccc(N(C)C(=O)c4cccc(Cl)c4Cl)c(C(=O)O)c3)cc2)cc1 [11:10, 5-[4-(4-butoxybenzenesulfonyl-amino)phenoxy]-2-[(2,3-di-chlorobenzoyl)methylamino]-benzoic acid]		95
Cc1c(F)cccc1S(=O)(=O)Nc1ccc(Oc2ccc(N(C)C(=O)c3ccc(OC(C)C)cc3)c(C(=O)O)c2)cc1 [11:11]	72	
COc1ccc(S(=O)(=O)N(C)c2ccc(Oc3ccc(NC(=O)c4ccc(Cl)cc4)c(C(=O)O)c3)cc2)cc1 [11:13, 2-(4-chlorobenzoylamino)-5-{4-[(4-methoxybenzenesulfonyl)-methylamino]phenoxy}benzoic acid]		99
COc1ccc(S(=O)(=O)N(C)c2ccc(Oc3ccc(NC(=O)c4cccc(Cl)c4)c(C(=O)O)c3)cc2)cc1 [11:14, 2-(3-Chloro-benzoylamino)-5-{4-[(4-methoxy-benzenesulfonyl)-methyl-amino]-phenoxy}-benzoic acid]		100
COc1ccc(S(=O)(=O)N(C)c2ccc(Oc3ccc(NC(=O)c4cc(Cl)ccc4Cl)c(C(=O)O)c3)cc2)cc1 [11:15, 2-(2,5-Dichloro-benzoylamino)-5-{4-[(4-methoxy-benzenesulfonyl)-methyl-amino]-phenoxy}-benzoic acid]		99
COc1ccc(S(=O)(=O)N(C)c2ccc(Oc3ccc(NC(=O)c4c(F)cccc4F)c(C(=O)O)c3)cc2)cc1 [11:16, 2-(2,6-Difluoro-benzoylamino)-5-{4-[(4-methoxy-benzenesulfonyl)-methyl-amino]-phenoxy}-benzoic acid]		94
COc1ccc(S(=O)(=O)N(C)c2ccc(Oc3ccc(NC(=O)c4ccc(Cl)cc4OC)c(C(=O)O)c3)cc2)cc1 [11:17, 2-(4-Chloro-2-methoxy-benzoylamino)-5-{4-[(4-methoxy-benzenesulfonyl)-methyl-amino]-phenoxy}-benzoic acid]		97

Structure (SMILES)	% inh. [%]	inhibition at 10 µM [%]
COc1ccc(S(=O)(=O)N(C)c2ccc(Oc3ccc(NC(=O)c4ccccc4C(F)(F)F)c(C(=O)O)c3)cc2)cc1 [11:18, 5-{4-[(4-Methoxy-benzenesulfonyl)-methyl-amino]-phenoxy}-2-(2-trifluoromethyl-benzoylamino)-benzoic acid]		96
COc1ccc(S(=O)(=O)N(C)c2ccc(Oc3ccc(NC(=O)c4ccccc4OC(F)(F)F)c(C(=O)O)c3)cc2)cc1 [11:19, 5-{4-[(4-Methoxy-benzenesulfonyl)-methyl-amino]-phenoxy}-2-(2-trifluoromethoxy-benzoylamino)-benzoic acid]		97
COc1ccc(S(=O)(=O)N(C)c2ccc(Oc3ccc(NC(=O)c4cc(Cl)cnc4Cl)c(C(=O)O)c3)cc2)cc1 [11:21, 2-[(2,5-Dichloropyridine-3-carbonyl)amino]-5-{4-[(4-methoxybenzenesulfonyl)-methylamino]phenoxy}benzoic acid]		96
COc1ccc(S(=O)(=O)N(C)c2ccc(Oc3ccc(NC(=O)c4ccccc4Cl)c(C(=O)O)c3)cc2)cc1 [11:22, 2-(2-Chloro-benzoylamino)-5-{4-[(4-methoxybenzenesulfonyl)-methylamino]phenoxy}benzoic acid]		95
CCCCc1ccc(C(=O)Nc2ccc(Oc3ccc(Nc4ccc(F)cc4)cc3)cc2C(=O)O)cc1 [12:2, 5-(4-(4-fluorophenylamino)-phenoxy)-2-(4-butylbenz-amido)benzoic acid]	94	
CCCCc1ccc(C(=O)Nc2ccc(Oc3ccc(N(C(=O)c4ccc(CCCC)cc4)c4ccc(F)cc4)cc3)cc2C(=O)O)cc1 [12:3, 5-(4-((N-4-fluorophenyl)4-butylbenzamido)phenoxy)-2-(4-butylbenzamido)benzoic acid]		83
O=C(O)c1cc(Oc2ccc(N(c3ccc(C(=O)C4CC4)cc3)c3ccc(C(=O)C4CC4)cc3)cc2)ccc1Nc1ccc(C(=O)C2CC2)cc1 [12:4, 5-{4-[bis-(4-cyclopropane-carbonyl-phenyl)-amino]-phenoxy}-2-(4-cycloprop-anecarbonyl-phenylamino)-benzoic acid]		87
O=C(O)c1cc(Oc2ccc(Nc3ccc(Cl)cc3)cc2)ccc1Nc1ccc(Cl)cc1 [12:5, 2-(4-chloro-phenylamino)-5-[4-(4-chloro-phenylamino)-phenoxy]-benzoic acid]		96
CCCCc1ccc(C(=O)Nc2ccc(Sc3ccc(NC(=O)c4ccc(CCCC)cc4)c(C(=O)O)c3)cc2C(=O)O)cc1 [13:1, 2-(4-butylbenzamido)-5-((4-(4-butylbenzamido)-3-carboxyphenyl)-sulfanyl)benzoic acid]		98
O=C(Nc1ccc(Sc2ccc(NC(=O)c3cccc(Cl)c3)c(C(=O)O)c2)cc1C(=O)O)c1cccc(Cl)c1 [13:2, 2-(3-chlorobenzamido)-5-((4-(3-chlorobenzamido)-3-carboxyphenyl)sulfanyl)benzoic acid]		100
O=C(Nc1ccc(Sc2ccc(NC(=O)c3ccc(C(F)(F)F)cc3)c(C(=O)O)c2)cc1C(=O)O)c1ccc(C(F)(F)F)cc1 [13:3, 2-(4-(trifluoromethyl)-benzamido)-5-((4-(4-(trifluoromethyl)benzamido)-3-carboxyphenyl)sulfanyl)benzoic acid]		99
CCCCc1ccc(S(=O)(=O)Nc2ccc(Sc3ccc(NS(=O)(=O)c4ccc(CCCC)cc4)c(C(=O)O)c3)cc2)cc1 [14:3, 2-(4-butyl-benzenesulfonyl-amino)-5-[4-(4-butyl-benzen-sulfonylamino)phenyl-sulfanyl]benzoic acid]		98
O=C(O)c1cc(Sc2ccc(NS(=O)(=O)c3ccc(Cl)cc3)cc2)ccc1NS(=O)(=O)c1ccc(Cl)cc1 [14:4, 2-(4-chloro-benzenesulfonyl-amino)-5-[4-(4-chloro-benzenesulfonylamino)-phenylsulfanyl]-benzoic acid]		100
O=C(Nc1ccc(Cl)cc1)Nc1ccc(Sc2ccc(NC(=O)Nc3ccc(Cl)cc3)c(C(=O)O)c2)cc1 [14:5, 2-[3-(4-chlorophenyl)-ureido]-5-{4-[3-(4-chlorophenyl)-ureido]phenylsulfanyl}-benzoic acid]		97
CCCCc1ccc(C(=O)Nc2ccc([S+]([O-])c3ccc(NC(=O)c4ccc(CCCC)cc4)c(C(=O)O)c3)cc2C(=O)O)cc1 [15:1, 5-(4-(4-butylbenzamido)-3-carboxyphenylsulfinyl)-2-(4-butylbenzamido)benzoic acid]		99
O=C(Nc1ccc([S+]([O-])c2ccc(NC(=O)c3cccc(Cl)c3)c(C(=O)O)c2)cc1C(=O)O)c1cccc(Cl)c1 [15:2, 2-(3-chlorobenzamido)-5-(4-(3-chlorobenzamido)-3-carboxyphenylsulfinyl)benzoic acid]		100
